Assay results taken from patent publication US7683061B2, “Triazine dimers for the treatment of autoimmune diseases” (ProMetic BioSciences Inc., priority 2003, dated 2010).

Experiments:
[1] = test system: peripheral blood mononuclear leukocytes (PBML); assay: PBML RNA synthesis (uridine); type: cell-based, human; details: for IC50: Homo sapiens, Leukocyte; for effect on RNA synthesis (in words): resting and stimulated (ConA and PWM) PBML
Source text: (§1) PBML were obtained from the peripheral blood of healthy volunteers. Blood was submitted to gradient centrifugation with Lympholyte-poly (Cedarlane, Hornby, Canada). The layer, which contains the mononuclear leukocytes, was collected and the cells washed three times in PBS. Cells were then suspended in RPMI (Gibco, Burlington, Canada) supplemented with […] (cyclone, Logan USA). Viability was greater than 99% as determined by trypan blue exclusion.
(§2) PBML were resuspended at 2×10^6 cells mL. 100 μL of PBML (2×10^5 cells) were incubated in a 96-well microtiter plate for 48 h in the presence or absence of compound or protein A. Cells were quiescent or stimulated with concanavalin A (ConA; T-cells) or pokeweed mitogen (PWM; B-cells). After incubation, cells were treated with MTT (cytotoxicity) or pulsed with 1 μCi of [^3]-thymidine (DNA synthesis), [^3H]-uridine (RNA synthesis) or [^3]-leucine (protein synthesis) for 6 h. Plates were harvested on a Tomteck and counted on a Microbeta β-counter.

[2] = test system: peripheral blood mononuclear leukocytes (PBML); assay: PBML protein synthesis (leucine); type: cell-based, human; details: for IC50: Homo sapiens, Leukocyte; for effect on protein synthesis (in words): resting and stimulated PBML
Source text: as §1, §2

[3] = biological target: TNFα / p55 TNFα receptor (CD120a) (Homo sapiens, UniProt P01375); assay: Binding ELISA: TNF-α binding to plastic coated TNF-R1; details: for inhibition at 100 µM: 10^−4 M; for inhibition at 10 µM: 10^−5 M
Sequence of TNFα / p55 TNFα receptor (CD120a) (P01375 77-233 limits assumed): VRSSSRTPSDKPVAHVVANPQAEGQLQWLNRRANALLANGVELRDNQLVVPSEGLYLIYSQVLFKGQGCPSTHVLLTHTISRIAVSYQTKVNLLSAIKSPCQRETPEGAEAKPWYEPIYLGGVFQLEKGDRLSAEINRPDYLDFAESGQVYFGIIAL
Method: Compounds were tested for their ability to bind to TNFα or inhibit the interaction of TNFα with its respective receptors; p55 and p75 TNFα receptor. Three binding ELISA assays were undertaken as described by Mancini et al. Biochemical Pharmacology 58, 851-859 (1999). TNFα or receptor (1 μg/mL) was coated on a 96-well plate Maxisorp, overnight at 4° C. After incubation, unbound TNFα or p55 TNFα receptor or p75 TNFα receptor was removed and the plate washed three times with PBS. The plate was then incubated with 100 μL/well of a 2% BSA solution for 1 h at 37° C. to block non specific protein binding. After incubation, the plate was washed three times with PBS. Biotinylated recombinant human TNFα p55 or p75 receptor or biotinylated recombinant human TNFα was added to the wells in the presence or absence of compounds. The plate was incubated for 1 h at 37° C. After incubation, the plate was washed three times with PBS to remove unbound labeled p55 or p75 receptor or recombinant human TNFα. 100 μL of avidin-HRP (diluted 1/2000 in PBS-0.1% BSA) was added to each well and incubated 1 h at 37° C. Bound p55 or p75 receptor or recombinant human TNFα was detected by the addition of 200 μL of 3,3′,5,5′-tetramethylbenzidine (TMB) per well for 15 min. The plate was then read at 655 nm on a EL 800 universal Microplate reader (Bio-Tek, Mississauga, Canada). Data was analyzed in Microsoft Excel and recorded as the percentage of inhibition of p55 or p75 binding to TNFα or TNFα binding to RI (p55) or RII (p75).

[4] = test system: female Lewis rats, adjuvant-induced arthritis; assay: Freund's adjuvant-induced arthritis (AIA); type: in vivo; details: for reduction of the inflammatory index: intravenous days −3, −2, −1, 12, 13, 14, 18, 19 and 20, from day 3 to day 5, FIG. 10
Source text: AIA was induced in female Lewis rats by the injection of lyophilized Mycobacterium butyricum suspended in mineral oil into the footpad. The development of aridity was monitored over a 3 weeks period post-adjuvant injection, inflammation peaks at day 3 following the adjuvant administration. Immune activation appears around day 14. Compounds were orally or intravenously administered at different doses at day −3, −2 and −1 pre-adjuvant injection and at different regimen as specified in the exponent starting from day 10 through 21 post-adjuvant injection or animals were treated with oral admiration of compound 19a from day −3 to day 21. Body weight was recorded. The arthritis index, which is a measure of inflammation (oedema), redness and stiffness of the articulations, was used to monitor the development of the disease. The degree of arthritis was determined by measuring two perpendicular diameters of the ankles in the mediolateral and dorsoventral planes using a caliper. Joint circumference in millimeters is then calculated using a geometric formula. Both the incidence and severity of the arthritis was evaluated. Incidence is defined as the number of rats with clinical evidence of joint inflammation during the study period.

[5] = test system: TNFα production, J774A-1 cells; assay: LPS-induced TNFα production in J774A-1 cells (ELISA); type: cell-based; details: Mus musculus, J774.A1, 24 h, read-out: IC50 (μM), inhibition of TNFα released by LPS induction
Summary of the method: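 J774-1 macrophages were cultured with or without LPS and compound at 37° C for 24 h. TNFα in supernatants measured by ELISA; IC50 is the concentration inhibiting 50% of TNFα production.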

[6] = test system: mice, oxazolone-induced DTH; assay: Oxazolone-induced delayed-type hypersensitivity (DTH); type: in vivo; details: for inflammation as seen by ear thickness: administered orally at day 0, 1 and 2, FIG. 8
Method: Compounds were tested for their ability to treat oxazolone-induced delayed-type hypersensitivity (DTH) in mice. On day 0, mice were sensitized with 100 μL of oxazolone in 5% acetone. On day 0, 1 and 2, mice were treated by intravenous or oral administrations of the vehicle (control) or methotrexate (MTX, positive control/IV) or hydrocortisone (positive control/PO) or the compound at 50 mg/kg to 300 mg/kg of body weight. Mice were challenged with an application of 50 μL of oxazolone on the surface of the right ear (first challenge, day 3; second challenge, day 10). Ear thickness was measured on day 4 to day 7, and on day 11 to 14. Redness and crust formation was also observed. Mice were sacrificed on day 14. TDTH (CD4) cells play an important role in regulating the intensity of the DTH response. Compounds may exert an inhibitory influence on the DTH response through its inhibition of T-cell activation and DNA, RNA and or protein synthesis.

PBML cytotoxicity (MTT) = type: cell-based; details: human
Source text: as §1, §2

Row | Compound | IC50 ([1]; ConA stimulated PBML) | IC50 ([1]; PWM stimulated PBML) | IC50 ([1]; Resting PBML) | effect on RNA synthesis (in words) [1] | IC50 ([2]; ConA stimulated PBML) | IC50 ([2]; PWM stimulated PBML) | IC50 ([2]; Resting PBML) | effect on protein synthesis (in words) [2] | inhibition at 100 µM [3] | inhibition at 10 µM [3] | reduction of the inflammatory index [4] | IC50 [5] | inflammation as seen by ear thickness [6] | IC50 at 48 h (PBML cytotoxicity (MTT); ConA stimulated PBML) | IC50 at 48 h (PBML cytotoxicity (MTT); PWM stimulated PBML) | IC50 at 48 h (PBML cytotoxicity (MTT); Resting PBML) | other results
1 | Oc1ccc(CCNc2nc(NCCNc3nc(NCCc4ccc(O)cc4)nc(Nc4ccccc4)n3)nc(Nc3ccccc3)n2)cc1 [Compound 1] | 0.92 µM | 0.66 µM | 1.1 µM | suppress | 2.44 µM | 2.96 µM | 6.48 µM | inhibit | 46% | 28.9% | 20% | 9.2 µM | significant reduction of the inflammation | 8.7 µM | > 10 µM | > 10 µM | 
2 | Nc1ccc(CCNc2nc(Nc3ccc(CCNc4nc(NCCO)nc(Nc5cccc(N)c5)n4)cc3)nc(Nc3cccc(N)c3)n2)cc1 [Compound 19a] | 0.693 µM | 0.398 µM | 0.399 µM | suppress | 3.91 µM | 4.88 µM | 9.9 µM | inhibit | 13.3% | -4% | 20% | 20.7 µM | significant reduction of the inflammation | 6.8 µM | > 10 µM | ≥ 10 µM | inhibition of chronic inflammation (days 12 to 21) ([4]; IV, days 12 to 19): strong and significant inhibition of inflammation; inhibition of chronic inflammation (days 12 to 21) ([4]; PO, day 16): strong and significant inhibition of inflammation; inhibition of inflammation ([4]; oral administration, acute inflammation, compared to the control and methotrexate): significant inhibition of inflammation; inhibition of inflammation ([4]; orally every day (days −3 to 21), from day 13 through day 22, FIG. 12): up to 50%; potency compared to methotrexate ([6]; FIGS. 6 and 7): equipotent to methotrexate
